Patent US20140057798A1, “PREDICTION OF DRUG SENSITIVITY OF LUNG TUMORS BASED ON MOLECULAR GENETIC SIGNATURES” (NESTEC S.A., priority 2011, published 2014)
“Also recorded” adds a separate entry of the source. Like-named read-outs stand apart in the source and are kept apart here.

Key:
H1975 cells = assay: Inhibition of tumor cell line growth (CellTiter-Glo), H1975; type: cell-based, human
H460 cells [1] = assay: Inhibition of tumor cell line growth (CellTiter-Glo), H460; type: cell-based, human; conditions: H460, single inhibitor 0.01-10 μM, 5% FBS, 48 hours
A549 cells [2] = assay: Inhibition of tumor cell line growth (CellTiter-Glo), A549; type: cell-based, human; conditions: A549, single inhibitor 0.01-10 μM, 5% FBS, 48 hours
H1993 cells [3] = assay: Inhibition of tumor cell line growth (CellTiter-Glo), H1993; type: cell-based, human; conditions: H1993, single inhibitor 0.01-10 μM, 5% FBS, 48 hours
[4] = test system: eight human lung tumor cell lines; assay: Inhibition of tumor cell growth, panel of lung tumor cell lines; type: cell-based
H1650 cells = assay: Inhibition of tumor cell line growth (CellTiter-Glo), H1650; type: cell-based, human; conditions: H1650, single inhibitor 0.01-10 μM, 5% FBS, 48 hours
[5] = test system: IGF-1R pathway in H460 cells; assay: Inhibition of activated signaling pathways by kinase inhibitors (CEER assay), H460; type: cell-based, human; conditions: H460, serum-starved overnight, 4-hour treatment, CEER assay (FIG. 2)
Excerpt: (§1) The principal of the CEER™ assay is based on the capture of the target protein by a target-specific antibody printed in two dilutions on the surface of a microarray slide. […] Formation of this complex is initiated by the binding of the first detecting antibody, which is coupled to glucose oxidase (GO), to an epitope on the captured target protein that is different from the epitope recognized by the capture antibody, followed by the binding of a second detecting antibody, which is coupled to horseradish peroxidase (HRP), to a phosphorylated tyrosine (p-Tyr) residue on the target protein. […]
(§2) The capture antibodies against mouse IgG, human epidermal growth factor receptor 1 (Her1), human epidermal growth factor receptor 2 (Her2), human epidermal growth factor receptor 3 (Her3), human hepatocyte growth factor receptor (cMET), human insulin-like growth factor-1 receptor (IGF1R), human stem cell growth factor receptor (cKit), human phosphatidylinositol-3-kinase (PI3K), human Src homology 2 domain-containing protein (SHC) and human cytokeratin (CK), were printed in this order in 10 rows from top to bottom in each slide. […] The relative fluorescence value of the respective reagent blank was subtracted from each sample to give a relative fluorescence unit (RFU) according the number of cells' extract.

H358 cells [6] = assay: Inhibition of tumor cell line growth (CellTiter-Glo), H358; type: cell-based, human; conditions: H358, single inhibitor 0.01-10 μM, 5% FBS, 48 hours
H358 cells [7] = assay: Anchorage-independent growth inhibition (soft agarose colonies), H358; type: cell-based, human; conditions: H358, 0.1 μM and 1 μM, two weeks, agar
Description: (§3) The plates were kept at 4° C. for 2 hr to solidify the cell-containing layer. The plates were then incubated at 37° C. in a CO2 incubator with 2 mL of medium containing various concentrations of the kinase inhibitor. The medium with the inhibitor was changed every 3 days.

A549 cells [8] = assay: Anchorage-independent growth inhibition (soft agarose colonies), A549; type: cell-based, human; conditions: A549, 0.1 μM and 1 μM, two weeks, agar
Description: as §3

HCC827 cells = assay: Inhibition of tumor cell line growth (CellTiter-Glo), HCC827; type: cell-based, human
H460 cells [9] = assay: Anchorage-independent growth inhibition (soft agarose colonies), H460; type: cell-based, human; conditions: H460, 0.1 μM and 1 μM, two weeks, agar
Description: as §3

[10] = test system: IGF-1R pathway in A549 cells; assay: Inhibition of activated signaling pathways by kinase inhibitors (CEER assay), A549; type: cell-based, human; conditions: A549, serum-starved overnight, 4-hour treatment, CEER assay (FIG. 2)
Excerpt: as §1, §2

H1734 cells [11] = assay: Inhibition of tumor cell line growth (CellTiter-Glo), H1734; conditions: H1734, single inhibitor 0.01-10 μM, 5% FBS, 48 hours
[12] = test system: Her1 and/or Her2 pathway in H1734 cells; conditions: H1734, serum-starved overnight, 4-hour treatment, CEER assay (FIG. 2)
Excerpt: as §1, §2

H1734 cells [13] = assay: Anchorage-independent growth inhibition (soft agarose colonies), H1734; type: cell-based, human; conditions: H1734, 0.1 μM and 1 μM, two weeks, agar
[14] = test system: c-Met pathway in H1993 cells; assay: Inhibition of activated signaling pathways by kinase inhibitors (CEER assay), H1993 c-Met; type: cell-based, human; conditions: H1993, serum-starved overnight, 4-hour treatment, CEER assay (FIG. 2)
Excerpt: as §1, §2

H1993 cells [15] = assay: Anchorage-independent growth inhibition (soft agarose colonies), H1993; type: cell-based, human; conditions: H1993, 0.1 μM and 1 μM, two weeks, agar
Description: as §3

[16] = H1975, single inhibitor 0.01-10 μM, 5% FBS, 48 hours

Structure (SMILES) | inhibition of cell proliferation (H1975 cells; [16]) | inhibition of cell proliferation (H460 cells [1]) | inhibition of cell proliferation (A549 cells [2]) | inhibition of cell proliferation (H1993 cells [3]) | inhibition of cell proliferation (H358 cells [6]) | also measured
Cn1c(=O)n(-c2ccc(C(C)(C)C#N)cc2)c2c3cc(-c4cnc5ccccc5c4)ccc3ncc21 [BEZ-235] | weakly inhibited | inhibited; also recorded: sensitive | inhibited; also recorded: sensitive | only weakly | – | inhibition of tumor cell growth across the cell lines tested [4]: effectively inhibited tumor cell growth in most of the cell lines tested, except the H1993 and H1650 cells
CN(C)C/C=C/C(=O)Nc1cc2c(Nc3ccc(F)c(Cl)c3)ncnc2cc1O[C@H]1CCOC1 [BIBW-2992] | – | – | – | only weakly | – | inhibition of cell proliferation (H1975 cells): potently inhibit the growth; also recorded: moderately inhibited; inhibition of cell proliferation (H1650 cells): inhibited
Cc1cc(N2CCOCC2)cc2[nH]c(-c3c(NC[C@@H](O)c4cccc(Cl)c4)cc[nH]c3=O)nc12 [BMS-536924] | able to inhibit the growth | weakly inhibited | inhibited | – | inhibit its proliferation more effectively | blocking of activated IGF-1R pathway [5]: able to block; reduction of cell colony size, anchorage-independent growth (H358 cells [7]): reduce cell colony size formation dose-dependently; reduction of cell colony size, anchorage-independent growth (A549 cells [8]): reduce cell colony size formation dose-dependently; inhibition of cell proliferation (HCC827 cells; HCC827, single inhibitor 0.01-10 μM, 5% FBS, 48 hours): inhibition of proliferation; reduction of cell colony size, anchorage-independent growth (H460 cells [9]): reduce cell colony size formation dose-dependently; blocking of activated IGF-1R pathway [10]: able to block
C#Cc1cccc(Nc2ncnc3cc(OCCOC)c(OCCOC)cc23)c1 [Erlotinib] | inhibited | – | – | – | – | inhibition of cell proliferation (H1734 cells [11]): inhibited
CS(=O)(=O)CCNCc1ccc(-c2ccc3ncnc(Nc4ccc(OCc5cccc(F)c5)c(Cl)c4)c3c2)o1 [Lapatinib] | resistant | – | – | – | weakly blocked | blocking of Her1 and/or Her2 pathway activation [12]: activation blocked; inhibition of cell proliferation (HCC827 cells): able to inhibit the proliferation
O=C(NOC[C@H](O)CO)c1ccc(F)c(F)c1Nc1ccc(I)cc1F [PD-325901] | weakly inhibited | not | not and weakly | able to block the proliferation | not | inhibition of cell proliferation (H1734 cells [11]): effective in blocking the growth; proliferation of cell colony size, anchorage-independent growth (H1734 cells [13]): potently blocked
C[C@@H](Oc1cc(-c2cnn(C3CCNCC3)c2)cnc1N)c1c(Cl)ccc(F)c1Cl [PF-2341066] | – | – | – | block its proliferation very effectively | not inhibited | blocking of c-Met pathway activation [14]: blocked; large colony formation, anchorage-independent growth (H1993 cells [15]): inhibited
